According to patent US11667643B2, “RIP1K inhibitors” (priority 2020, dated 2023):

What was measured:
L929 cells = test: L929 cell necroptosis assay (TNFa + zVAD, CellTiter-Glo recovery), functional murine RIP1 assay; assay type: cell-based; conditions: Mus musculus, L929, 18 h, read-out: L929-CTG-recovery, L929, TNFa + zVAD (IC50), L929 cells, zVAD-fmk, TNFa 2 ng/mL, 18 hours, CellTiter-Glo
Summary of the method: (§1)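 Human U937 cells (50K/well, 60 uM zVAD-fmk in plating medium) and murine L929 cells (10K/well, medium replaced with 40 uM zVAD-fmk) were pre-incubated with compound 1 h at 37 °C. TNFa was then added at a final 2 ng/mL. Viability by CellTiter-Glo luminescence after 18 h.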

U937 cells = test: U937 cell necroptosis assay (TNFa + zVAD, CellTiter-Glo recovery), functional human RIP1 assay; assay type: cell-based; conditions: Homo sapiens, U-937, 18 h, read-out: U937 Zvad TNF CTG Recovery, U937, TNFa + zVAD (IC50), U937 cells, zVAD-fmk, TNFa 2 ng/mL, 18 hours, CellTiter-Glo
Summary of the method: as §1

RIPK1 = RIPK1 (Homo sapiens (Human), UniProt Q13546); test: biochemical; assay type: biochemical; conditions: RIPK1 enzyme 31 ng/well, 30° C. for 30 minutes, luminescence; read-out: RIPK1 ADP-Glo Kinase (IC50)
Chain of RIPK1 (Q13546 whole entry, species assumed): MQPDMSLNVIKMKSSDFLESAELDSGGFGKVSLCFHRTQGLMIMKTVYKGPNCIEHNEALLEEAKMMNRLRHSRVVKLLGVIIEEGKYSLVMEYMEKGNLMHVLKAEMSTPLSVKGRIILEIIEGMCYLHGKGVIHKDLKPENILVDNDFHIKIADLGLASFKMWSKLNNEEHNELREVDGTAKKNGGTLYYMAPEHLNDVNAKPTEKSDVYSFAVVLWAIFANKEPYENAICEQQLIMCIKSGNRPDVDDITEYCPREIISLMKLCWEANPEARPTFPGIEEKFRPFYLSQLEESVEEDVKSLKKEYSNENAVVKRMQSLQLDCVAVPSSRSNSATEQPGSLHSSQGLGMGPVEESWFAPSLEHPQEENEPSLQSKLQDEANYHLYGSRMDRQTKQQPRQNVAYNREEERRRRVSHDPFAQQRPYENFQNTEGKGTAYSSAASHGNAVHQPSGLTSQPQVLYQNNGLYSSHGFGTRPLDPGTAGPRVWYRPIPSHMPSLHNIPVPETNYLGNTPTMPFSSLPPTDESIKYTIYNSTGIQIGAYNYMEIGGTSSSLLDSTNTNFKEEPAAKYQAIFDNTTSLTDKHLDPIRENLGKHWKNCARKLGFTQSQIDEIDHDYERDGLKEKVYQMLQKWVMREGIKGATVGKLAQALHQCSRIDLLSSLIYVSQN
Summary of the method: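 ADP-Glo luminescent assay of RIPK1 at 31 ng/well in Tris-HCl pH 7.4 buffer with MgCl2, BSA, 100 μM DTT and 4 mM MnCl2; compounds run in duplicate. Kinase reaction 30 min at 30 °C, then ADP-Glo 40 min and detection reagent 30 min at room temperature; ADP formation read as luminescence.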

Cc1cn2c(n1)C(NC(=O)c1ncn(Cc3c(Cl)cccc3Cl)n1)CCc1ccccc1-2 (racemic) [Compound I-35, (±)-1-(2,6-Dichlorobenzyl)-N-(2-methyl-5,6-dihydro-4H-benzo[f]imidazo[1,2-a]azepin-4-yl)-1H-1,2,4-triazole-3-carboxamide]
IC50 (L929 cells): 10000 µM
IC50 (U937 cells): 2.68 µM
IC50 (RIPK1): 2.08 µM
